Test results reported in patent US20240239781A1, “1H-PYRAZOLE DERIVATIVES AS SIGMA LIGANDS” (ACONDICIONAMIENTO TARRASENSE, priority 2021, published 2024).

How the values were obtained:
human σ2/TMEM97 receptor = molecular target: T1, human σ2/TMEM97 receptor (Homo sapiens, UniProt Q5BJF2); assay: Binding assay to human σ2/TMEM97 receptor ([3H]-DTG, transfected HEK-293 membranes); conditions: class scale, read-out: Binding σ-2 Ki
T1 construct: expressed in transfected cells; host or cells: HEK-293
Procedure: Transfected HEK-293 membranes (15 μg) were incubated with 10 nM [^3H]-1,3-Di-o-tolylguanidine (DTG) in assay buffer containing Tris-HCl 50 mM at pH 8.0. NSB (non-specific binding) was measured by adding 10 μM haloperidol. The binding of the test compound was measured at either one concentration (% inhibition at 1 or 10 μM) or five different concentrations to determine affinity values (Ki). Plates were incubated at 25° C. for 120 minutes. After the incubation period, the reaction mix was transferred to MultiScreen HTS, FC plates (Millipore), filtered and washed 3 times with ice-cold 10 mM Tris-HCL (pH 8.0). Filters were dried and counted at approximately 40% efficiency in a MicroBeta scintillation counter (Perkin-Elmer) using EcoScint liquid scintillation cocktail.

human σ1 receptor = molecular target: T2, human σ1 receptor (Homo sapiens, UniProt Q99720); assay: Human σ1 receptor radioligand assay ([3H](+)-pentazocine, transfected HEK-293 membranes); conditions: class scale, read-out: Binding σ-1 Ki
T2 construct: expressed in transfected cells; host or cells: HEK-293
Procedure: Transfected HEK-293 membranes (7 μg) were incubated with 5 nM of [^3H](+)-pentazocine in assay buffer containing Tris-HCl 50 mM at pH 8. NBS (non-specific binding) was measured by adding 10 μM haloperidol. The binding of the test compound was measured at either one concentration (% inhibition at 1 or 10 μM) or five different concentrations to determine affinity values (Ki). Plates were incubated at 37° C. for 120 minutes. After the incubation period, the reaction mix was then transferred to MultiScreen HTS, FC plates (Millipore), filtered and plates were washed 3 times with ice-cold 10 mM Tris-HCL (pH7.4). Filters were dried and counted at approximately 40% efficiency in a MicroBeta scintillation counter (Perkin-Elmer) using EcoScint liquid scintillation cocktail.

T2 sequence (Q99720 whole entry): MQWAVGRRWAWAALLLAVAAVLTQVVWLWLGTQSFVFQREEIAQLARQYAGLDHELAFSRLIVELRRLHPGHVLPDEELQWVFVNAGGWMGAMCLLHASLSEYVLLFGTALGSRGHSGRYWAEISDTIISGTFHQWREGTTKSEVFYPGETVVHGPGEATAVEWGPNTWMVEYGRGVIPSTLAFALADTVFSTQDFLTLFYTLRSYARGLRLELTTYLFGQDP
T1 sequence (Q5BJF2 whole entry): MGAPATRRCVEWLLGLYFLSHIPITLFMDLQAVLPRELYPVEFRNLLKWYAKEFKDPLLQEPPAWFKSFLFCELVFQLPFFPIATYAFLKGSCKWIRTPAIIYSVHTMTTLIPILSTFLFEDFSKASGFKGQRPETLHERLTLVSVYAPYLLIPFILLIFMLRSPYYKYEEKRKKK

Row | Compound | Ki (human σ2/TMEM97 receptor) | Ki (human σ1 receptor)
1 | Cc1cc(-c2nn(C)c(Cl)c2CN2CCC3(C2)CN(Cc2ccccc2)C3)no1 [Example 60, 3-(4-((2-Benzyl-2,6-diazaspiro[3.4]octan-6-yl)methyl)-5-chloro-1-methyl-1H-pyrazol-3-yl)-5-methylisoxazole] | 100 to 500 nM | < 100 nM
2 | Cc1cc(-c2nn(C)c(Cl)c2CN2CCC3(C2)CN(CCc2ccccc2)C3)no1 [Example 61, 3-(5-Chloro-1-methyl-4-((2-phenethyl-2,6-diazaspiro[3.4]octan-6-yl)methyl)-1H-pyrazol-3-yl)-5-methylisoxazole] | < 100 nM | 100 to 500 nM
3 | Cc1cc(-c2nn(C)c(Cl)c2CN2CCC(C3(NCCC(C)C)CC3)C2)no1 (centres unmarked) [Example 62, 1-(1-((5-Chloro-1-methyl-3-(5-methylisoxazol-3-yl)-1H-pyrazol-4-yl)methyl)pyrrolidin-3-yl)-N-isopentylcyclopropanamine] | 100 to 500 nM | 500 to 1000 nM
4 | Cc1cc(-c2nn(C)c(Cl)c2CN2CCCC(C3(NCCC(C)C)CC3)C2)no1 (centres unmarked) [Example 63, 1-(1-((5-Chloro-1-methyl-3-(5-methylisoxazol-3-yl)-1H-pyrazol-4-yl)methyl)piperidin-3-yl)-N-isopentylcyclopropanamine] | 100 to 500 nM | < 100 nM
5 | Cc1cc(-c2nn(C)c(Cl)c2CN2CCCOC(CNCCC(C)C)C2)no1 (centres unmarked) [Example 64, N-((4-((5-Chloro-1-methyl-3-(5-methylisoxazol-3-yl)-1H-pyrazol-4-yl)methyl)-1,4-oxazepan-2-yl)methyl)-3-methylbutan-1-amine] | 100 to 500 nM | 100 to 500 nM
6 | Cc1cc(-c2nn(C)c(Cl)c2CN2CCC3(CC2)CCN(C(C)c2ccccc2)CC3)no1 (centres unmarked) [Example 65, 3-(5-Chloro-1-methyl-4-((9-(1-phenylethyl)-3,9-diazaspiro[5.5]undecan-3-yl)methyl)-1H-pyrazol-3-yl)-5-methylisoxazole] | 100 to 500 nM | 100 to 500 nM
7 | Cc1cc(-c2nn(C)c(Cl)c2CN2CCC3(CCN(Cc4ccccc4)CC3)CC2)no1 [Example 66, 3-(4-((9-Benzyl-3,9-diazaspiro[5.5]undecan-3-yl)methyl)-5-chloro-1-methyl-1H-pyrazol-3-yl)-5-methylisoxazole] | < 100 nM | < 100 nM
8 | Cc1cc(-c2nn(C)c(Cl)c2CN2CCC3(CCN(CCC(C)C)CC3)CC2)no1 [Example 67, 3-(5-Chloro-4-((9-isopentyl-3,9-diazaspiro[5.5]undecan-3-yl)methyl)-1-methyl-1H-pyrazol-3-yl)-5-methylisoxazole] | < 100 nM | 500 to 1000 nM
9 | Cc1cc(-c2nn(C)c(Cl)c2CN2CCC3(CC2)CCN(CC(C)(C)C)CC3)no1 [Example 68, 3-(5-Chloro-1-methyl-4-((9-neopentyl-3,9-diazaspiro[5.5]undecan-3-yl)methyl)-1H-pyrazol-3-yl)-5-methylisoxazole] | < 100 nM | 100 to 500 nM
10 | Cc1cc(-c2nn(C)c(Cl)c2CN2CC[C@]3(CCN(CCC(C)(C)C)C3)C2)no1 [Example 69, (S)-3-(5-Chloro-4-((7-(3,3-dimethylbutyl)-2,7-diazaspiro[4.4]nonan-2-yl)methyl)-1-methyl-1H-pyrazol-3-yl)-5-methylisoxazole] | < 100 nM | < 100 nM
11 | Cc1cc(-c2nn(C)c(Cl)c2CN2CC[C@@]3(CCN(CCC(C)(C)C)C3)C2)no1 [Example 70, (R)-3-(5-chloro-4-((7-(3,3-dimethylbutyl)-2,7-diazaspiro[4.4]nonan-2-yl)methyl)-1-methyl-1H-pyrazol-3-yl)-5-methylisoxazole] | < 100 nM | < 100 nM
12 | Cc1cc(-c2nn(C)c(Cl)c2CN2CC[C@H](CNCCc3ccccc3)C2)no1 [Example 71, (R)-N-((1-((5-Chloro-1-methyl-3-(5-methylisoxazol-3-yl)-1H-pyrazol-4-yl)methyl)pyrrolidin-3-yl)methyl)-2-phenylethanamine] | 100 to 500 nM | > 1000 nM

Second part, the compound after the results:

Row | Ki (human σ2/TMEM97 receptor) | Ki (human σ1 receptor) | Compound
13 | 100 to 500 nM | 500 to 1000 nM | Cc1cc(-c2nn(C)c(Cl)c2CN2CC[C@@H](CNCCc3ccccc3)C2)no1 [Example 72, (S)-N-((1-((5-chloro-1-methyl-3-(5-methylisoxazol-3-yl)-1H-pyrazol-4-yl)methyl)pyrrolidin-3-yl)methyl)-2-phenylethanamine]
14 | < 100 nM | 100 to 500 nM | Cc1cc(-c2nn(C)c(Cl)c2CN2CC[C@@H](CNCCC(C)(C)C)C2)no1 [Example 73, (S)-N-((1-((5-Chloro-1-methyl-3-(5-methylisoxazol-3-yl)-1H-pyrazol-4-yl)methyl)pyrrolidin-3-yl)methyl)-3,3-dimethylbutan-1-amine]
15 | < 100 nM | 100 to 500 nM | Cc1cc(-c2nn(C)c(Cl)c2CN2CC[C@H](CNCCC(C)(C)C)C2)no1 [Example 74, (R)-N-((1-((5-chloro-1-methyl-3-(5-methylisoxazol-3-yl)-1H-pyrazol-4-yl)methyl)pyrrolidin-3-yl)methyl)-3,3-dimethylbutan-1-amine]
16 | < 100 nM | 500 to 1000 nM | Cc1cc(-c2nn(C)c(Cl)c2CN2CC[C@]3(C2)C[C@H](NCCC(C)(C)C)C3)no1 [Example 75, (2s,4r)-6-((5-Chloro-1-methyl-3-(5-methylisoxazol-3-yl)-1H-pyrazol-4-yl)methyl)-N-(3,3-dimethylbutyl)-6-azaspiro[3.4]octan-2-amine]
17 | 100 to 500 nM | 100 to 500 nM | Cc1cc(-c2nn(C)c(Cl)c2CN2CC[C@]3(C2)C[C@@H](NCCC(C)(C)C)C3)no1 [Example 76]
18 | < 100 nM | 100 to 500 nM | Cc1cc(-c2nn(C)c(Cl)c2CN2C[C@@H](CNCCC(C)(C)C)[C@H](C)C2)no1 [Example 77, N-(((3R,4S)-1-((5-Chloro-1-methyl-3-(5-methylisoxazol-3-yl)-1H-pyrazol-4-yl)methyl)-4-methylpyrrolidin-3-yl)methyl)-3,3-dimethylbutan-1-amine]
19 | < 100 nM | 100 to 500 nM | Cc1cc(-c2nn(C)c(Cl)c2CN2C[C@H](CNCCC(C)(C)C)[C@@H](C)C2)no1 [Example 78, N-(((3S,4R)-1-((5-Chloro-1-methyl-3-(5-methylisoxazol-3-yl)-1H-pyrazol-4-yl)methyl)-4-methylpyrrolidin-3-yl)methyl)-3,3-dimethylbutan-1-amine]
20 | 100 to 500 nM | > 1000 nM | Cc1cc(-c2nn(C)c(Cl)c2CN2CCCCC(NCCN3CCCCC3)C2)no1 (centres unmarked) [Example 79, 1-((5-Chloro-1-methyl-3-(5-methylisoxazol-3-yl)-1H-pyrazol-4-yl)methyl)-N-(2-(piperidin-1-yl)ethyl)azepan-3-amine]
21 | 500 to 1000 nM | 100 to 500 nM | Cc1cc(-c2nn(C)c(Cl)c2CN2CCCCC(N(C)CCC(C)C)C2)no1 (centres unmarked) [Example 80, 1-((5-Chloro-1-methyl-3-(5-methylisoxazol-3-yl)-1H-pyrazol-4-yl)methyl)-N-isopentyl-N-methylazepan-3-amine]
22 | 100 to 500 nM | 100 to 500 nM | Cc1cc(-c2nn(C)c(Cl)c2CN2CCCCC(N(C)CC3CCOCC3)C2)no1 (centres unmarked) [Example 81, 1-((5-Chloro-1-methyl-3-(5-methylisoxazol-3-yl)-1H-pyrazol-4-yl)methyl)-N-methyl-N-((tetrahydro-2H-pyran-4-yl)methyl)azepan-3-amine]
23 | 100 to 500 nM | 500 to 1000 nM | Cc1cc(-c2nn(C)c(Cl)c2CN2CCCCC(N(C)CCN3CCCCC3)C2)no1 (centres unmarked) [Example 82, 1-((5-Chloro-1-methyl-3-(5-methylisoxazol-3-yl)-1H-pyrazol-4-yl)methyl)-N-methyl-N-(2-(piperidin-1-yl)ethyl)azepan-3-amine]
24 | < 100 nM | 500 to 1000 nM | Cc1cc(-c2nn(C)c(Cl)c2C(=O)N2CCCC(CNCCC(C)(C)C)C2)no1 (centres unmarked) [Example 83, (5-Chloro-1-methyl-3-(5-methylisoxazol-3-yl)-1H-pyrazol-4-yl)(3-(((3,3-dimethylbutyl)amino)methyl)piperidin-1-yl)methanone]
25 | 100 to 500 nM | > 1000 nM | Cc1cc(-c2nn(C)c(Cl)c2C(=O)N2CCCCC(NCCC(C)C)C2)no1 (centres unmarked) [Example 84, (5-Chloro-1-methyl-3-(5-methylisoxazol-3-yl)-1H-pyrazol-4-yl)(3-(isopentylamino)azepan-1-yl)methanone]
26 | 100 to 500 nM | > 1000 nM | Cc1cc(-c2nn(C)c(Cl)c2C(=O)N2CCCCC(NCCc3ccccc3)C2)no1 (centres unmarked) [Example 85, (5-Chloro-1-methyl-3-(5-methylisoxazol-3-yl)-1H-pyrazol-4-yl)(3-(phenethylamino)azepan-1-yl)methanone]
27 | 100 to 500 nM | > 1000 nM | Cc1cc(-c2nn(C)c(Cl)c2C(=O)N2CCCCC(NCc3ccccc3)C2)no1 (centres unmarked) [Example 86, (3-(Benzylamino)azepan-1-yl)(5-chloro-1-methyl-3-(5-methylisoxazol-3-yl)-1H-pyrazol-4-yl)methanone]
28 | < 100 nM | 500 to 1000 nM | Cc1cc(-c2nn(C)c(Cl)c2C(=O)N2CCC3(CCN(CCC(C)(C)C)C3)CC2)no1 [Example 87, (5-Chloro-1-methyl-3-(5-methylisoxazol-3-yl)-1H-pyrazol-4-yl)(2-(3,3-dimethylbutyl)-2,8-diazaspiro[4.5]decan-8-yl)methanone]
